Data published in patent US20230149362A1, “NEW CAPSULE COMPOSITION FOR PERORAL ADMINISTRATION” (Vicore Pharma AB, priority 2020, published 2023).
Converted amounts (≈) assume the structure as drawn. Like-named read-outs stand apart in the source and are kept apart here.

Key:
[1] = Stability of aqueous solutions of C21 under four storage conditions (sensitivity to light); format: physicochemical; conditions: for Amount of Free C21, % of initial / Solution pH: 1 mg/mL in 0.9% NaCl
Protocol: The stability of free C21 in 0.9% NaCl pH 9.4 was investigated.
Solutions of 1 mg/mL of C21 were studied for four weeks under four different storage conditions. The solution was filtered through a 0.22 sterile syringe filter to minimize bacterial growth during the stability test. The samples were analysed by HPLC for purity.
The results are summarised in Table 3 below, in which the amount of C21 is given as a percentage of the initial amount of drug. Solution pHs were also measured and are shown within parenthesis in Table 3.
The stability of the sodium salt of C21 was also investigated under the same storage conditions.
At the time for analysis of the one week samples, it was noted that the heating cabinet for storage of samples at 40° C. was broken. In view of this, these samples were thereafter kept at room temperature for three days.

[2] = Solubility of free C21 in aqueous vehicles (saturated solutions, HPLC); format: physicochemical; conditions: for solubility at 48 h: thermodynamic from solid, read-out: Concentration (solubility)
From the text: Vehicles (with sources) were as follows: sodium chloride (Sigma), ethanol (99.5%, Kemetyl), polyethylene glycols (BASF), phosphate buffered saline (PBS) pH 7.4 (Sigma), buffer solution pH 2.00 (citric acid, sodium hydroxide, hydrogen chloride), buffer solution pH 4.00 (citric acid, sodium hydroxide), buffer solution pH 6.00 (citric acid, sodium hydroxide), buffer solution pH 8.00 (boric acid, sodium hydroxide, hydrogen chloride) and buffer solution pH 10.00 (boric acid, sodium hydroxide, hydrogen chloride) (all Merck), and purified water (Elga Option 4 water purifier).
Saturated solutions of free C21 (obtained from Syntagon AB, Södertälje, Sweden) were prepared in duplicates. The samples were kept magnetically stirred for 48 hours prior to analysis. For some samples, the added substance was dissolved and more was thereafter added to obtain saturated solutions.
After 48 hours, pH was measured and thereafter 1 mL of solution was withdrawn. Undissolved substance was removed by centrifugation (1500 rpm, 30 minutes). The supernatant was diluted 10 to 500 times with acetonitrile/H2O, 30:70.
C21 content was measured by HPLC.

Q: For CCCCOC(=O)NS(=O)(=O)c1sc(CC(C)C)cc1-c1ccc(Cn2ccnc2)cc1 [free C21, N-butyloxycarbonyl-3-(4-imidazol-1-ylmethylphenyl)-5-iso-butylthiophene-2-sulfonamide], which “Amount of Free C21, % of initial” value ([1]; 5° C., dark, 1 week) is on record?
A: 101 % of initial

Q: And the “Solution pH” value ([1]; 5° C., dark, 1 week)?
A: (9.2)

Q: And the “Amount of Free C21, % of initial” value ([1]; 5° C., dark, 2 weeks)?
A: 107 % of initial

Q: And the “Solution pH” value ([1]; 5° C., dark, 2 weeks)?
A: (9.2)

Q: What about the “Amount of Free C21, % of initial” value ([1]; 5° C., dark, 3 weeks) of the same compound?
A: 108 % of initial

Q: And the “Solution pH” value ([1]; 5° C., dark, 3 weeks)?
A: (9.1)

Q: What about the “Amount of Free C21, % of initial” value ([1]; 5° C., dark, 4 weeks) of the same compound?
A: 108 % of initial

Q: What about the “Solution pH” value ([1]; 5° C., dark, 4 weeks) of the same compound?
A: (9.2)

Q: What about the “Amount of Free C21, % of initial” value ([1]; 5° C., dark, Initial) of the same compound?
A: 100 % of initial

Q: What about the “Solution pH” value ([1]; 5° C., dark, Initial) of the same compound?
A: (9.4)

Q: And the “Amount of Free C21, % of initial” value ([1]; 40° C., dark, 1 week)?
A: 101 % of initial

Q: And the “Solution pH” value ([1]; 40° C., dark, 1 week)?
A: (9.0)

Q: What about the “Amount of Free C21, % of initial” value ([1]; 40° C., dark, 2 weeks) of the same compound?
A: 111 % of initial

Q: What about the “Solution pH” value ([1]; 40° C., dark, 2 weeks) of the same compound?
A: (8.6)

Q: And the “Amount of Free C21, % of initial” value ([1]; 40° C., dark, 3 weeks)?
A: 106 % of initial

Q: What about the “Solution pH” value ([1]; 40° C., dark, 3 weeks) of the same compound?
A: (8.7)

Q: And the “Amount of Free C21, % of initial” value ([1]; 40° C., dark, 4 weeks)?
A: 107 % of initial

Q: And the “Solution pH” value ([1]; 40° C., dark, 4 weeks)?
A: (8.7)

Q: What about the “Amount of Free C21, % of initial” value ([1]; 40° C., dark, Initial) of the same compound?
A: 100 % of initial

Q: What about the “Solution pH” value ([1]; 40° C., dark, Initial) of the same compound?
A: (9.4)

Q: What about the “Amount of Free C21, % of initial” value ([1]; RT, dark, 1 week) of the same compound?
A: 97 % of initial

Q: What about the “Solution pH” value ([1]; RT, dark, 1 week) of the same compound?
A: (9.2)

Q: And the “Amount of Free C21, % of initial” value ([1]; RT, dark, 2 weeks)?
A: 109 % of initial

Q: And the “Solution pH” value ([1]; RT, dark, 2 weeks)?
A: (8.9)

Q: What about the “Amount of Free C21, % of initial” value ([1]; RT, dark, 3 weeks) of the same compound?
A: 105 % of initial

Q: And the “Solution pH” value ([1]; RT, dark, 3 weeks)?
A: (9.0)

Q: What about the “Amount of Free C21, % of initial” value ([1]; RT, dark, 4 weeks) of the same compound?
A: 106 % of initial

Q: What about the “Solution pH” value ([1]; RT, dark, 4 weeks) of the same compound?
A: (8.9)

Q: What about the “Amount of Free C21, % of initial” value ([1]; RT, dark, Initial) of the same compound?
A: 100 % of initial

Q: And the “Solution pH” value ([1]; RT, dark, Initial)?
A: (9.4)

Q: What about the “Amount of Free C21, % of initial” value ([1]; RT, light, 1 week) of the same compound?
A: 96 % of initial

Q: And the “Solution pH” value ([1]; RT, light, 1 week)?
A: (9.0)

Q: What about the “Solution pH” value ([1]; RT, light, 2 weeks) of the same compound?
A: (8.0)

Q: And the “Amount of Free C21, % of initial” value ([1]; RT, light, 2 weeks, precipitation, filtered)?
A: 44 % of initial

Q: And the “Amount of Free C21, % of initial” value ([1]; RT, light, 3 weeks)?
A: 96 % of initial

Q: What about the “Solution pH” value ([1]; RT, light, 3 weeks) of the same compound?
A: (8.5)

Q: What about the “Solution pH” value ([1]; RT, light, 4 weeks) of the same compound?
A: (7.7)

Q: And the “Amount of Free C21, % of initial” value ([1]; RT, light, 4 weeks, precipitation, filtered)?
A: 13 % of initial

Q: And the “Amount of Free C21, % of initial” value ([1]; RT, light, Initial)?
A: 100 % of initial

Q: What about the “Solution pH” value ([1]; RT, light, Initial) of the same compound?
A: (9.4)

Q: And the “total impurity peak area” value ([1]; samples stored at 5° C., RT/dark and 40° C.)?
A: around 2.5 area% of C21 peak area

Q: What about the “chemical stability in aqueous solution” value ([1]; stored in dark at 5° C., RT and 40° C., four weeks) of the same compound?
A: chemically stable

Q: And the solubility at 48 h ([2]; 0.9% NaCl, pH 7.3, saline or isotonic, vehicle 0.9% NaCl, pH 7.3)?
A: 120 µg/mL (≈ 252 µM)

Q: And the solubility at 48 h ([2]; 0.9% NaCl, pH 8.3, saline or isotonic, vehicle 0.9% NaCl, pH 8.3 adjusted by NaOH, one sample)?
A: 1580 µg/mL (≈ 3320 µM)

Q: What about the solubility at 48 h ([2]; 0.9% NaCl, pH 9.7, saline or isotonic, vehicle 0.9% NaCl, pH 9.7 adjusted by NaOH) of the same compound?
A: 27400 µg/mL (≈ 57600 µM)

Q: And the solubility at 48 h ([2]; 0.9% NaCl/EtOH 95:5 v/v, pH 7.9, aqueous with cosolvent or surfactant or cyclodextrin, vehicle 0.9% NaCl/EtOH 95:5 v/v, pH 7.9, one sample)?
A: 570 µg/mL (≈ 1200 µM)

Q: And the solubility at 48 h ([2]; PBS pH 7.4, pH 7.7, aqueous buffer, vehicle Buffer/PBS pH 7.4, measured pH 7.7)?
A: 240 µg/mL (≈ 505 µM)

Q: What about the solubility at 48 h ([2]; PEG/EtOH/H2O (40:10:50), pH 6.1, aqueous with cosolvent or surfactant or cyclodextrin, vehicle PEG/EtOH/H2O (40:10:50), pH 6.1) of the same compound?
A: 830 µg/mL (≈ 1750 µM)

Q: And the solubility at 48 h ([2]; PEG/H2O (25:75), pH 5.5, aqueous with cosolvent or surfactant or cyclodextrin, vehicle PEG/H2O (25:75), pH 5.5)?
A: 170 µg/mL (≈ 357 µM)

Q: And the solubility at 48 h ([2]; PEG/H2O (50:50), pH 6.2, aqueous with cosolvent or surfactant or cyclodextrin, vehicle PEG/H2O (50:50), pH 6.2)?
A: 610 µg/mL (≈ 1280 µM)

Q: What about the solubility at 48 h ([2]; PG/EtOH/H2O (40:10:50), pH 6.3, aqueous with cosolvent or surfactant or cyclodextrin, vehicle PG/EtOH/H2O (40:10:50), pH 6.3) of the same compound?
A: 790 µg/mL (≈ 1660 µM)

Q: And the solubility at 48 h ([2]; PG/H2O (10:90), pH 7.5, aqueous with cosolvent or surfactant or cyclodextrin, vehicle PG/H2O (10:90), pH 7.5)?
A: 220 µg/mL (≈ 463 µM)

Q: And the solubility at 48 h ([2]; PG/H2O (25:75), pH 6.9, aqueous with cosolvent or surfactant or cyclodextrin, vehicle PG/H2O (25:75), pH 6.9)?
A: 300 µg/mL (≈ 631 µM)

Q: And the solubility at 48 h ([2]; boric acid buffer pH 8.0, pH 7.9, aqueous buffer, vehicle Buffer/Boric acid pH 8.0, measured pH 7.9)?
A: 500 µg/mL (≈ 1050 µM)

Q: What about the solubility at 48 h ([2]; boric acid buffer pH 10.0, pH 8.7, aqueous buffer, vehicle Buffer/Boric acid pH 10.0, measured pH 8.7) of the same compound?
A: 19100 µg/mL (≈ 40200 µM)

Q: And the solubility at 48 h ([2]; citric acid buffer pH 2.0, pH 2.3, aqueous buffer, vehicle Buffer/Citric acid pH 2.0, measured pH 2.3)?
A: 3950 µg/mL (≈ 8300 µM)

Q: And the solubility at 48 h ([2]; citric acid buffer pH 4.0, pH 4, aqueous buffer, vehicle Buffer/Citric acid pH 4.0, measured pH 4.0)?
A: 80 µg/mL (≈ 168 µM)

Q: What about the solubility at 48 h ([2]; citric acid buffer pH 6.0, pH 6, aqueous buffer, vehicle Buffer/Citric acid pH 6.0, measured pH 6.0) of the same compound?
A: 60 µg/mL (≈ 126 µM)

Q: And the “Concentration (solubility)” value ([2]; vehicle Buffer/Boric acid pH 10.0, measured pH 8.7)?
A: 19900 µg/mL

Q: What about the solubility at 48 h ([2]; water, pH 7.3, water, vehicle H2O, pH 7.3, stirred 48 hours) of the same compound?
A: 150 µg/mL (≈ 315 µM)
